Source: US12187722B2, “Small molecule inhibitors of TEAD transcription factors” (The General Hospital Corporation, priority 2019, dated 2025)
pIC50: −log10 of the molar value. Several values for one entry are separate records, joined by “and”; a condition that tells them apart may be missing. Equal entries are not always repeated. Where two headings read alike, the source gives them in different places.

How the values were obtained:
[1] = target: T1, TEAD2 (Homo sapiens (Human), UniProt Q15562); assay: In vitro palmitoylation (TEAD2 autopalmitoylation, streptavidin blot); format: biochemical; conditions: compound at 10 μM
In short: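 Recombinant GST- or His6-TEAD2 (500 ng) preincubated 15 min with compound, then 30 min with 1 μM alkyne palmitoyl-CoA; click-labelled with biotin-azide (1 h, RT). Streptavidin-HRP blot band intensity quantified after SDS-PAGE; inhibition of autopalmitoylation relative to DMSO control.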

[2] = target: T1, TEAD2; assay: CMP assay (CPM fluorescence detection of free CoA); format: biochemical; conditions: for IC50: Table 2, read-out: IC50 μM (CMP assay)
Description: 7-Diethylamino-3-(4′-Maleimidylphenyl)-4-Methylcoumarin (CPM), which reacts with thiol of CoA liberated in the enzymatic reaction, and gives fluorescent signal (excitation ˜350-380, emission-460-480). The assay detects the product (free CoA) which is produced from palmitoyl-CoA as a method to detect the enzymatic activity. Test compounds that inhibit TEAD activity are therefore able to block the CMP fluorescent signal.
TEAD2/4 protein (10 μL of a 50 ng/μL solution) and a solution the test compound (0.5 μL, variable concentration) were pre-incubated for 30 min at r.t. A mixture prepared from MES pH 6.4 buffer (6.5 μL of a 50 mM solution), EDTA (1 μL of a 20 mM solution), palmitoyl-CoA (1 μL of a 20 μM solution), and 7-diethylamino-3-(4′-maleimidylphenyl)-4-methylcoumarin (1 μL of a 10 μM solution) was added and the resulting mixture was mixed well using a pipette. The solution was then incubated at r.t. for 30-120 min. in the dark, and fluorescence was detected at […] every 30 min. until the fluorescence signal is saturated. An IC50 for the ability of the compound to inhibit fluorescence is calculated from the results.

[3] = Table 3, unit inferred, read-out: TEAD2 palmitoylation IC50

T1 sequence (Q15562 whole entry): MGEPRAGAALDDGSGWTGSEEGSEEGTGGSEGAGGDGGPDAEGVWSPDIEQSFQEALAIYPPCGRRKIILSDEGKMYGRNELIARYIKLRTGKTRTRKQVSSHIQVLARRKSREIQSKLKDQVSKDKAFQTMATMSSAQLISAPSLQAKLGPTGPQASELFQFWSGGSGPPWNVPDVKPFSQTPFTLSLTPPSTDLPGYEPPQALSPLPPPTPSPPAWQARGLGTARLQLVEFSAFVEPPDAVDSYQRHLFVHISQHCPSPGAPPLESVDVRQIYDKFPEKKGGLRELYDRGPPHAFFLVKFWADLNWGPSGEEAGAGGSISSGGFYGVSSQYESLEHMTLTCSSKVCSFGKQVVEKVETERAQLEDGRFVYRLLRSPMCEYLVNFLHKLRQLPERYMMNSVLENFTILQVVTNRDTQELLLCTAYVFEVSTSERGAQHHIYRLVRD

Compound	inhibition at 10 µM ([1]; Table 3) [%]	pIC50 [2, 3]	inhibition at 10 µM ([1]; Table 2) [%]	further results
C=CC(=O)c1ccccc1Nc1cccc(Nc2ccc(C34CC5CC(CC(C5)C3)C4)cc2)c1				inhibition at 10 µM [1]: 70%; pIC50 ([2]; CMP assay, read-out: CMP IC50): 5.29
O=C(O)c1ccccc1Nc1ccc(Nc2ccc(C34CC5CC(CC(C5)C3)C4)cc2Cl)cc1 [Compound 31]			99	% of inhibition of TEAD2 palmitoylation at 10 μM ([1]; Table 2): 84% and 82%; IC50 [2]: 0.377 µM
O=C(O)c1cccc(Nc2ccc(Nc3ccc(C45CC6CC(CC(C6)C4)C5)cc3Cl)cc2)n1 [Compound 90]			98	IC50 [2]: 0.446 µM
CN(c1ccc(N(C)c2ccccc2C(=O)O)cc1)c1ccc(C23CC4CC(CC(C4)C2)C3)cc1 [Compound 100]			100	IC50 [2]: 0.207 µM
CN(c1ccc(N(C)c2ncccc2C(=O)O)cc1)c1ccc(C23CC4CC(CC(C4)C2)C3)cc1Cl [Compound 109]			100	IC50 [2]: 0.346 µM
O=C(O)c1cccnc1Nc1cnn(Cc2ccc(C34CC5CC(CC(C5)C3)C4)cc2Cl)c1 [Compound 112]			100	IC50 [2]: 0.268 µM
O=C(O)c1cccc(Nc2cc(Nc3ccc(C45CC6CC(CC(C6)C4)C5)cc3Cl)cc(C(F)(F)F)c2)n1 [Compound 119]			100	IC50 [2]: 0.106 µM
CN(c1ccc(Nc2ccc(C34CC5CC(CC(C5)C3)C4)cc2Cl)cc1)c1ncccc1C(=O)O [Compound 125]			96	IC50 [2]: 0.771 µM
CN(c1ccc(N(C)c2ncccc2C(=O)O)cc1)c1ccc(C23CC4CC(CC(C4)C2)C3)cc1 [Compound 139]			95	IC50 [2]: 0.312 µM
CN(c1ccc(Oc2ccc(C34CC5CC(CC(C5)C3)C4)cc2Cl)cc1)c1ccccc1C(=O)O [Compound 168]			97	IC50 [2]: 0.173 µM
CN(c1ccc(N(C)c2ccccc2C(=O)O)cc1)c1ccc(C23CC4CC(C)(CC(C)(C4)C2)C3)cc1 [Compound 178]			100	IC50 [2]: 0.227 µM
COc1ccc(Nc2ccc(N(C)c3ccc(C45CC6CC(CC(C6)C4)C5)cc3)cc2)c(C(=O)O)c1 [Compound 250]			89	IC50 [2]: 0.274 µM
O=C(O)c1cccnc1Nc1ccc(Oc2ccc(C34CC5CC(CC(C5)C3)C4)cc2Cl)cc1 [Compound 252]			100	IC50 [2]: 0.053 µM
CC12CC3CC(C)(C1)CC(c1ccc(Oc4ccc(Nc5ccccc5C(=O)O)cc4)c(Cl)c1)(C3)C2 [Compound 253]			100	IC50 [2]: 0.099 µM
CC12CC3CC(C)(C1)CC(c1ccc(Oc4ccc(Nc5ncccc5C(=O)O)cc4)c(Cl)c1)(C3)C2 [Compound 254]			100	IC50 [2]: 0.297 µM
O=C(O)c1ccccc1Nc1ncc(Nc2ccc(C34CC5CC(CC(C5)C3)C4)cc2Cl)cn1 [compound 284]			14	
O=C(O)c1ccccc1C(=O)Nc1ccc(Nc2ccc(C34CC5CC(CC(C5)C3)C4)cc2Cl)cc1 [compound 286, 2-((4-(4-((3r,5r,7r)-adamantan-1-yl)-2-chlorophenyl)amino)phenyl)carbamoyl) benzoic acid]				% of inhibition of TEAD2 palmitoylation at 10 μM ([1]; Table 2, listed as 293): 86%
O=C(O)C1=C(C(=O)Nc2ccc(C34CC5CC(CC(C5)C3)C4)cc2)CCC1 [compound 289]			88	
O=C(O)C1=C(C(=O)Nc2ccc(Nc3ccc(C45CC6CC(CC(C6)C4)C5)cc3Cl)cc2)CCC1 [compound 290]			69	
O=C(O)c1ccccc1C(=O)Nc1cccc(Nc2ccc(C34CC5CC(CC(C5)C3)C4)cc2)c1 [compound 292]			97	
COc1ccc(Nc2ccc(N(C)c3ccc(C(F)(F)F)cc3)cc2)c(C(N)=O)c1 [compound 429]			47	
CNC(=O)c1cc(OC)ccc1Nc1ccc(N(C)c2ccc(C(F)(F)F)cc2)cc1 [compound 430]			63	
COc1ccc(Nc2ccc(N(C)c3ccc(C(F)(F)F)cc3)cc2)c(C(=O)N(C)C)c1 [compound 431]			37	
O=C(O)c1ccccc1Nc1cnc(Oc2ccc(C34CC5CC(CC(C5)C3)C4)cc2Cl)cn1 [compound 440]			75	
O=C(O)c1ccccc1Nc1cnc(Oc2ccc(C3CCCCC3)cc2Cl)cn1 [compound 441]			79	

Further lines, with some results ahead:

inhibition at 10 µM ([1]; Table 3) [%]	pIC50 [2, 3]	inhibition at 10 µM ([1]; Table 2) [%]	Compound	further results
93	5.84		COc1ccc(Nc2ccc(N(C)c3ccc(C(F)(F)F)cc3)cc2)c(C(=O)O)c1 [CP-521]	
96	5.82		COc1ccc(Nc2ccc(N(C)c3ccc(C4CCCCC4)cc3)cc2)c(C(=O)O)c1 [CP-522]	
76	6.42		COc1ccc(Nc2ccc(N(C)c3ccc(S(F)(F)(F)(F)F)cc3)cc2)c(C(=O)O)c1 [CP-528]	
85	6.17		COc1ccc(Nc2ccc(N(C)c3ccc(C4CC5CCC4C5)cc3)cc2)c(C(=O)O)c1 (centres unmarked) [CP-538]	
86	6.35		COc1ccc(Nc2ccc(N(C)c3ccc(OC(F)(F)F)cc3)cc2)c(C(=O)O)c1 [CP-548]	
85	5.62		COc1ccc(Nc2ccc(N(C)c3ccc(C4CCCCC4)cc3)cc2F)c(C(=O)O)c1 [CP-549]	
91	8.70		COc1ccc(Nc2ccc(N(C)c3ccc(C45CC6CC(CC(C6)C4)C5)cc3)cc2C)c(C(=O)O)c1 [CP-551]	
100	6.23		COc1ccc(Nc2ccc(N(C)c3ccc(OCC(F)(F)F)cc3)cc2)c(C(=O)O)c1 [CP-553]	
96	8.00		COc1ccc(Nc2ccc(N(C)c3ccc(C)cc3)cc2)c(C(=O)O)c1 [CP-554]	
100	8.00		COc1ccc(Nc2ccc(N(C)c3ccc(N4CCCCC4)cc3)cc2)c(C(=O)O)c1 [CP-555]	
90	7.96		COc1ccc(Nc2ccc(N(C)c3ccc(C4CCCCC4)cc3)cc2C)c(C(=O)O)c1 [CP-560]	
100	6.29		COc1ccc(Nc2ccc(N(C)c3ccc(OCC(F)(F)F)cc3)cc2C)c(C(=O)O)c1 [CP-565]	
99	6.42		O=C(O)c1ccccc1Nc1ccc(Oc2ccc(C3CCCCC3)cc2Cl)nc1 [CP-566]	
73	6.19		COc1ccc(Nc2ccc(Oc3ccc(C45CC6CC(C)(CC(C)(C6)C4)C5)cc3Cl)cc2F)c(C(=O)O)c1 [CP-570]	
94	6.44		COc1ccc(Nc2ccc(N(C)c3ccc(S(F)(F)(F)(F)F)cc3)cc2C)c(C(=O)O)c1 [CP-571]	
	6.64		COc1ccc(Nc2ccc(N(C)c3ccc(C4CCC(C)CC4)cc3)cc2)c(C(=O)O)c1 (centres unmarked) [CP-583]	% of inhibition of TEAD2 palmitoylation at 10 μM ([1]; Table 3): 96%
	6.68		COc1ccc(Nc2ccc(N(C)c3ccc(C4CCC(C)CC4)cc3)cc2)c(C(=O)O)c1 (centres unmarked) [CP-584]	% of inhibition of TEAD2 palmitoylation at 10 μM ([1]; Table 3): 85%
86	6.49		COc1ccc(Nc2ccc(N(C)c3ccc(C4CC5CCC4C5)cc3)cc2F)c(C(=O)O)c1 (centres unmarked) [CP-585]	
97	5.80		COc1ccc(Nc2ccc(N(C)c3ccc(OC(F)(F)F)cc3)cc2F)c(C(=O)O)c1 [CP-589]	
96	6.66		COc1ccc(Nc2ccc(N(C)c3ccc(OC(F)(F)F)cc3)cc2C)c(C(=O)O)c1 [CP-590]	
78	7.52		COc1ccc(Nc2ccc(N(C)c3ccc(C4CCC(C)(C)CC4)cc3)cc2)c(C(=O)O)c1 [CP-593]	
74	7.30		COc1ccc(Nc2ccc(N(C)c3ccc(C4CCCCC4)cc3)nc2)c(C(=O)O)c1 [CP-598]	
96	6.12		Cc1cc(N(C)c2ccc(C3CCCCC3)cc2)ccc1Nc1ccc(OC2CC2)cc1C(=O)O [CP-619]	
87	6.42		COc1ccc(Nc2ccc(N(C)c3ccc(C4CCCCC4)cc3)cc2C2CC2)c(C(=O)O)c1 [CP-626]	
